This is an account of results in patent publication US9296741B2, “Bromodomain inhibitors” (priority 2012, dated 2016).

As usually defined, the Ki is the dissociation constant of the complex between target and ligand, obtained from inhibition or displacement. A lower Ki goes with a stronger hold on the target.

The target in data set [1] is human BRD4 first bromodomain (BDI_K57-E168) (Homo sapiens (Human), UniProt O60885). In words: TR-FRET bromodomain binding assay, BRD4 first bromodomain.
The target in data set [2] is human BRD4 second bromodomain (BDII_E352-M457) (Homo sapiens (Human), UniProt O60885). In words: TR-FRET bromodomain binding assay, BRD4 second bromodomain.
For data set [3], the system named is breast cancer cell line MX-1. In words: MX-1 cell line proliferation assay. The settings on record: Homo sapiens, MX1, 72 h; MX-1 cells, 3-day proliferation, Cell Titer Glo; read-out: Cellular proliferation: EC50. It counts as cell-based, human. Background: In ATP-based viability assays light output follows the ATP content of the culture.
In data set [4] the test system is LPS induced IL-6 production. The data set can be described thus: LPS (lipopolysaccharide) induced IL-6 production mouse assay. It counts as in vivo. The settings on record: Mus musculus, read-out: Inhibition of LPS induced IL-6 production in Mice, % inhibition at 3 mg/kg; 3 mg/kg oral, 1 h before LPS; serum IL-6 2 h after LPS.
Data set [5] in a line: Human liver microsome stability assay. It counts as in vitro ADME. The following applies: both sexes, human, microsomes, pH 7.4.
A short description of data set [6]: Rat liver microsome stability assay. It counts as in vitro ADME. The following applies: rat liver microsomes (male Sprague-Dawley), 0.5 μM test compound, pH 7.4, 37° C.; for half-life at 0.5 μM: 0.25 mg/mL microsomal protein, read-out: Stability in rat liver microsomes (t1/2 in minutes). In general terms: Liver microsomes are vesicles of endoplasmic reticulum, rich in cytochrome P450 enzymes.

Data set [7] can be described thus: Mouse liver microsome stability assay. It counts as in vitro ADME. The following applies: male, CD1, mouse, microsomes, pH 7.4.

Bounds are passed on as bounds.

As to `Cn1cc(-c2cc(S(C)(=O)=O)ccc2Oc2cccc(F)c2)c2cc[nH]c2c1=O` [Example 150, 4-[2-(3-fluorophenoxy)-5-(methylsulfonyl)phenyl]-6-methyl-1,6-dihydro-7H-pyrrolo[2,3-c]pyridin-7-one], the figures for the Ki in data set [1] and in data set [2] were 0.0097 µM and 0.0042 µM, respectively. The EC50 in data set [3] came to 0.0665 µM. In data set [4], the inhibition in vivo at 3 mg/kg was determined as 54%.

As to `Cn1cc(-c2cc(CS(C)(=O)=O)ccc2NCC2CC2)c2cc[nH]c2c1=O` [Example 328, 4-{2-[(cyclopropylmethyl)amino]-5-[(methylsulfonyl)methyl]phenyl}-6-methyl-1,6-dihydro-7H-pyrrolo[2,3-c]pyridin-7-one], the EC50 in data set [3] was determined as 0.0426 µM. The half-life at 0.5 μM in data set [5] was more than 120 min; in data set [6], 36 min; in data set [7], more than 120 min. Further, the inhibition in vivo at 3 mg/kg in data set [4] worked out at 40%.

On to `CNS(=O)(=O)c1cnc(OC2CCOC2)c(-c2cn(C)c(=O)c3[nH]ccc23)c1` (stereo not shown) [Example 87, N-methyl-5-(6-methyl-7-oxo-6,7-dihydro-1H-pyrrolo[2,3-c]pyridin-4-yl)-6-(tetrahydrofuran-3-yloxy)pyridine-3-sulfonamide], for which the EC50 in data set [3] stood at 0.0534 µM. Besides, the results for the half-life at 0.5 μM in data set [5] and in data set [6] were more than 120 min and 23 min, respectively. Moreover, the inhibition in vivo at 3 mg/kg in data set [4] amounted to 57%.

As to `CCS(=O)(=O)c1ccc(O[C@H]2CC[C@@H](O)CC2)c(-c2cn(C)c(=O)c3[nH]ccc23)c1` [Example 202, 4-{5-(ethylsulfonyl)-2-[(cis-4-hydroxycyclohexyl)oxy]phenyl}-6-methyl-1,6-dihydro-7H-pyrrolo[2,3-c]pyridin-7-one], the Ki in data set [1] worked out at 0.0017 µM; in data set [2], 0.0014 µM. The EC50 in data set [3] is 0.0228 µM. The half-life at 0.5 μM in data set [6] is more than 120 min. Also, the inhibition in vivo at 3 mg/kg in data set [4] turned out to be 68%.

`Cn1cc(-c2cc(NS(C)(=O)=O)cc(Cl)c2Oc2ccccc2)c2cc[nH]c2c1=O` [Example 28, N-[3-chloro-5-(6-methyl-7-oxo-6,7-dihydro-1H-pyrrolo[2,3-c]pyridin-4-yl)-4-phenoxyphenyl]methanesulfonamide]: in data set [3], the EC50 turned out to be 0.0239 µM. The results for the half-life at 0.5 μM in data set [5] and in data set [6] were 21 min and 9 min, respectively. Also, the inhibition in vivo at 3 mg/kg in data set [4] is 52%.

Turning to `CCS(=O)(=O)c1ccc(O[C@H]2CC[C@H](O)CC2)c(-c2cn(C)c(=O)c3[nH]ccc23)c1` [Example 203, 4-{5-(ethylsulfonyl)-2-[(trans-4-hydroxycyclohexyl)oxy]phenyl}-6-methyl-1,6-dihydro-7H-pyrrolo[2,3-c]pyridine-7-one], the Ki in data set [1] is 0.00069 µM; in data set [2], 0.00075 µM. In data set [3], the EC50 was found to be 0.0047 µM. Also, in data set [6], the half-life at 0.5 μM is more than 120 min. The inhibition in vivo at 3 mg/kg in data set [4] was 78%.

As to `Cn1cc(-c2cc(S(C)(=O)=O)ccc2Oc2ccc(F)cc2)c2cc[nH]c2c1=O` [Example 151, 4-[2-(4-fluorophenoxy)-5-(methylsulfonyl)phenyl]-6-methyl-1,6-dihydro-7H-pyrrolo[2,3-c]pyridin-7-one], the results for the Ki in data set [1] and in data set [2] were 0.0107 µM and 0.0081 µM, respectively. In addition, in data set [3], the EC50 is 0.0549 µM. Further, the inhibition in vivo at 3 mg/kg in data set [4] was 66%.

Turning to `Cn1cc(-c2cc(S(C)(=O)=O)ccc2Oc2ccccc2F)c2cc[nH]c2c1=O` [Example 149, 4-[2-(2-fluorophenoxy)-5-(methylsulfonyl)phenyl]-6-methyl-1,6-dihydro-7H-pyrrolo[2,3-c]pyridin-7-one], the Ki in data set [1] came out at 0.0115 µM; in data set [2], 0.003 µM. Moreover, the EC50 in data set [3] amounted to 0.0297 µM. In addition, in data set [4], the inhibition in vivo at 3 mg/kg was 69%.

On to `Cn1cc(-c2cc(S(C)(=O)=O)ccc2NC2CCOC2)c2cc[nH]c2c1=O` (stereo not shown) [Example 167, 6-methyl-4-[5-(methylsulfonyl)-2-(tetrahydrofuran-3-ylamino)phenyl]-1,6-dihydro-7H-pyrrolo[2,3-c]pyridin-7-one], for which the Ki in data set [1] amounted to 0.0065 µM; in data set [2], 0.0122 µM. In addition, in data set [3], the EC50 worked out at 0.043 µM. Also, in data set [4], the inhibition in vivo at 3 mg/kg came to 64%.

`COCCS(=O)(=O)Nc1ccc(Oc2ccc(F)cc2F)c(-c2cn(C)c(=O)c3[nH]ccc23)c1` [Example 236, N-[4-(2,4-difluorophenoxy)-3-(6-methyl-7-oxo-6,7-dihydro-1H-pyrrolo[2,3-c]pyridin-4-yl)phenyl]-2-methoxyethanesulfonamide]: the Ki in data set [1] worked out at 0.0145 µM; in data set [2] it was 0.0051 µM. Further, in data set [3], the EC50 is 0.025 µM. Besides, the half-life at 0.5 μM in data set [5] was found to be 33 min; in data set [6], 32 min; in data set [7] it was 15 min.

For the compound `CN(C)C1CCN(S(=O)(=O)c2ccc(OCC3CC3)c(-c3cn(C)c(=O)c4[nH]ccc34)c2)C1` (stereo not shown) [Example 310, 4-[2-(cyclopropylmethoxy)-5-{[3-(dimethylamino)pyrrolidin-1-yl]sulfonyl}phenyl]-6-methyl-1,6-dihydro-7H-pyrrolo[2,3-c]pyridin-7-one], the Ki in data set [1] came to 0.0409 µM; in data set [2], 0.0711 µM. Also, the EC50 in data set [3] amounted to 0.103 µM. In addition, the half-life at 0.5 μM in data set [5] was found to be 8 min; in data set [6], 5 min; in data set [7], 9 min.

As to `Cn1cc(-c2cc(S(C)(=O)=O)ccc2OC2CCC2)c2cc[nH]c2c1=O` [Example 213, 4-[2-(cyclobutyloxy)-5-(methylsulfonyl)phenyl]-6-methyl-1,6-dihydro-7H-pyrrolo[2,3-c]pyridin-7-one], the figures for the Ki in data set [1] and in data set [2] were 0.0032 µM and 0.0048 µM, respectively. Moreover, the EC50 in data set [3] came to 0.0287 µM. In addition, the figures for the half-life at 0.5 μM in data set [5], in data set [6] and in data set [7] were 79 min, 38 min and 89 min, respectively.

With `Cn1cc(-c2cc(S(=O)(=O)N3CCC(O)CC3)ccc2OCC2CC2)c2cc[nH]c2c1=O` [Example 354, 4-{2-(cyclopropylmethoxy)-5-[(4-hydroxypiperidin-1-yl)sulfonyl]phenyl}-6-methyl-1,6-dihydro-7H-pyrrolo[2,3-c]pyridin-7-one], the Ki in data set [1] came to 0.066 µM; in data set [2] it was 0.0129 µM. The EC50 in data set [3] turned out to be 0.0954 µM. The results for the half-life at 0.5 μM in data set [5], in data set [6] and in data set [7] were 23 min, 41 min and 24 min, respectively.

As for `CN(c1ccc(Oc2ccccc2)c(-c2cn(C)c(=O)c3[nH]ccc23)c1)S(C)(=O)=O` [Example 8, N-methyl-N-[3-(6-methyl-7-oxo-6,7-dihydro-1H-pyrrolo[2,3-c]pyridin-4-yl)-4-phenoxyphenyl]methanesulfonamide], the figures for the Ki in data set [1] and in data set [2] were 0.0026 µM and 0.0039 µM, respectively. The EC50 in data set [3] was found to be 0.0244 µM. For the same compound, the half-life at 0.5 μM in data set [5] turned out to be 19 min; in data set [7], 9 min. In addition, the “Stability in rat liver microsomes (t1/2 in minutes)” value in data set [6] ([…] microsomal protein) was 1 min.

Consider `Cn1cc(-c2cc(S(C)(=O)=O)ccc2Oc2ccc(F)cc2F)c2cc(C(=O)Nc3nccs3)[nH]c2c1=O` [Example 257, 4-[2-(2,4-difluorophenoxy)-5-(methylsulfonyl)phenyl]-6-methyl-7-oxo-N-(1,3-thiazol-2-yl)-6,7-dihydro-1H-pyrrolo[2,3-c]pyridine-2-carboxamide], for which the results for the Ki in data set [1] and in data set [2] were 0.0588 µM and 0.003 µM, respectively. For the same compound, in data set [3], the EC50 stood at 0.36 µM. The figures for the half-life at 0.5 μM in data set [5], in data set [6] and in data set [7] were 18 min, 56 min and 20.3 min, respectively.

As for `CCOC(=O)c1cc2c(-c3cc(N)ccc3Oc3ccccc3)cn(C)c(=O)c2[nH]1` [Example 69, ethyl 4-(5-amino-2-phenoxyphenyl)-6-methyl-7-oxo-6,7-dihydro-1H-pyrrolo[2,3-c]pyridine-2-carboxylate], the Ki in data set [1] came out at 0.039 µM; in data set [2], 0.0123 µM. The EC50 in data set [3] worked out at 0.14 µM. In addition, the half-life at 0.5 μM in data set [5] is 6 min; in data set [6], 2 min; in data set [7] it was 3 min.

On to `Cn1cc(-c2cc(S(C)(=O)=O)ccc2Oc2ccc(F)cc2F)c2cc(C(N)=O)[nH]c2c1=O` [Example 252, 4-[2-(2,4-difluorophenoxy)-5-(methylsulfonyl)phenyl]-6-methyl-7-oxo-6,7-dihydro-1H-pyrrolo[2,3-c]pyridine-2-carboxamide], for which the Ki was 0.0101 µM in data set [1] and 0.0017 µM in data set [2]. The EC50 in data set [3] was 0.246 µM. The half-life at 0.5 μM in data set [5] was 68 min; in data set [6], more than 120 min; in data set [7], more than 120 min.

With `Cn1cc(-c2cc(NS(C)(=O)=O)ccc2Oc2ccc(F)cc2)c2cc[nH]c2c1=O` [Example 26, N-[4-(4-fluorophenoxy)-3-(6-methyl-7-oxo-6,7-dihydro-1H-pyrrolo[2,3-c]pyridin-4-yl)phenyl]methanesulfonamide], the values for the Ki in data set [1] and in data set [2] were 0.0021 µM and 0.0033 µM, respectively. Further, the EC50 in data set [3] was found to be 0.0171 µM. The inhibition in vivo at 3 mg/kg in data set [4] was 60%.

As for `Cn1cc(-c2cc(S(C)(=O)=O)ccc2NCC2CCOC2)c2cc[nH]c2c1=O` (stereo not shown) [Example 201, 6-methyl-4-{5-(methylsulfonyl)-2-[(tetrahydrofuran-3-ylmethyl)amino]phenyl}-1,6-dihydro-7H-pyrrolo[2,3-c]pyridin-7-one], the Ki was 0.0102 µM in data set [1] and 0.0407 µM in data set [2]. For the same compound, the EC50 in data set [3] was 0.135 µM. Moreover, the half-life at 0.5 μM in data set [5] was 56 min; in data set [6], 117 min; in data set [7], more than 120 min.
